Laboratory results: ChEMBL document CHEMBL1123943, “Biologically active dihydrodiol metabolites of polycyclic aromatic hydrocarbons structurally related to the potent carcinogenic hydrocarbon 7,12-dimethylbenz[a]anthracene” (1988)

Key:
Type in all cases: functional
[1] = system: Rattus norvegicus; test: Tumor initiating activity measured as number of chromosomal aberrations per cell, at a dose of 50 mg/kg
[2] = system: Rattus norvegicus; test: Tumor initiating activity measured as incidence of % aberrent cells with chromosomal aberrations, at given dose of 50 mg/kg
[3] = system: Rattus norvegicus; test: Tumor initiating activity measured as number of chromosomal aberrations per cell, at a dose of 25 mg/kg
[4] = system: Rattus norvegicus; test: Tumor initiating activity measured as incidence of % aberrent cells with chromosomal aberrations, at given dose of 25 mg/kg
[5] = system: Rattus norvegicus; test: Tumor initiating activity measured as number of chromosomal aberrations per cell, at given dose 50 mg/kg
[6] = species: Mus musculus; test: Tumor initiating activity measured as percentage of mice with papillomas at a dose of 100 nmol
[7] = species: Mus musculus; test: Tumor initiating activity measured as number of papillomas on mouse skin at a dose of 100 nmol
[8] = species: Mus musculus; test: Tumor initiating activity measured as number of papillomas on mouse skin at a dose of 50 nmol
[9] = species: Mus musculus; test: Tumor initiating activity measured as percentage of mice with papillomas at a dose of 50 nmol
[10] = species: Mus musculus; test: Tumor initiating activity measured as percentage of mice with papillomas at a dose of 200 nmol
[11] = species: Mus musculus; test: Tumor initiating activity measured as number of papillomas on mouse skin at a dose of 200 nmol

## Oc1ccc2c(ccc3cc4ccccc4cc32)c1O
[1]
  aberrations per cell: 0.02 aberrations/cell
[2]
  Activity: 2.2%

## Cc1c2ccccc2c(C)c2c1ccc1c(O)c(O)ccc12
[3]
  aberrations per cell: 0.31 aberrations/cell
[4]
  Activity: 22.2%
[2]
  Activity: 53%
[5]
  aberrations per cell: 1.44 aberrations/cell

## Cc1ccc2cc3c(ccc4ccccc43)c3c2c1CC3 [3-METHYLCHOLANTHRENE]
[6]
  Activity: 97%
[7]
  papillomas per mouse: 7.13 papillomas/mouse

## Cc1c2ccccc2cc2ccc3c(O)c(O)ccc3c12
[3]
  aberrations per cell: 0.17 aberrations/cell
[4]
  Activity: 12.8%

## Cc1c2cccc3c2c(c2ccc4ccccc4c12)CC3
[8]
  papillomas per mouse: 14.7 papillomas/mouse
[9]
  Activity: 100%

## Cc1c2cccc3c2c(c2ccc4c(O)c(O)ccc4c12)CC3
[8]
  papillomas per mouse: 16.5 papillomas/mouse
[9]
  Activity: 100%

## c1cc2c3c(c4ccc5ccccc5c4cc3c1)CC2 [CHOLANTHRENE]
[10]
  Activity: 93%
[11]
  papillomas per mouse: 6.9 papillomas/mouse

## Cc1ccc2cc3c(ccc4c(O)c(O)ccc43)c3c2c1CC3
[6]
  Activity: 100%
[7]
  papillomas per mouse: 7.7 papillomas/mouse

## Oc1ccc2c(ccc3c4c5c(cccc5cc32)CC4)c1O
[10]
  Activity: 80%
[11]
  papillomas per mouse: 3.32 papillomas/mouse

## Cc1c2ccccc2cc2c1ccc1c(O)c(O)ccc12
[1]
  aberrations per cell: 0.07 aberrations/cell
[2]
  Activity: 6.6%
